Data as given in the supplement of paper PMC10307832.

Legend:
Assay in all cases: relative viability (nuclei count vs DMSO), 5 days (fraction); higher = more cells survive
[1] = compound: O=C(CCCCCCNC(=O)c1cnc(N(c2ccccc2)c2ccccc2)nc1)NO [Ricolinostat] + CC(C)C[C@H](NC(=O)[C@H](Cc1ccccc1)NC(=O)c1cnccn1)B(O)O [Bortezomib] (partner 0.002 µM)
Procedure, shortened: (§1)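 Nuclei were stained with Hoechst during a one-step fixation (final 0.05% Triton X-100, 1% formaldehyde, 1 ug/ml Hoechst) carried out 5 days after dosing, then counted on 4× images. The cells, lung cancer lines in 1536-well plates, had been dosed by pin tool the day after seeding with one drug alone or a fixed anchor-drug dose plus five library-drug doses (not always all listed) in √10 steps. Relative viability is the nuclei count in treated wells divided by that in vehicle wells, and each value is the median of duplicate plates.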

[2] = compound: CC1=CN2C(=O)C=C(N=C2C(=C1)C(C)NC3=CC=CC=C3)N4CCOCC4 [TGX 221] + Cc1nc(Nc2ncc(C(=O)Nc3c(C)cccc3Cl)s2)cc(N2CCN(CCO)CC2)n1 [Dasatinib] (partner 0.075 µM)
Procedure, shortened: as §1

[3] = compound: C1=CC=C(C(=C1)C2=CC=C(C=C2)C3=CSC4=C3C(=C(C(=O)N4)C#N)O)O + N=C(N)NC(=N)NCCc1ccccc1 [Phenformin] (partner 250 µM)
Procedure, shortened: as §1

[4] = compound: C1=CC=C(C(=C1)C2=CC=C(C=C2)C3=CSC4=C3C(=C(C(=O)N4)C#N)O)O + C[C@@H](Oc1cc(-c2cnn(C3CCNCC3)c2)cnc1N)c1c(Cl)ccc(F)c1Cl [Crizotinib] (partner 1 µM)
Procedure, shortened: as §1

Cell Line | relative viability ([1]; first compound 0.08 µM) | relative viability ([1]; first compound 0.8 µM) | relative viability ([1]; first compound 2.53 µM) | relative viability ([2]; first compound 0.08 µM) | relative viability ([2]; first compound 0.253 µM) | relative viability ([2]; first compound 0.8 µM) | relative viability ([2]; first compound 2.53 µM) | relative viability ([2]; first compound 8 µM) | relative viability ([3]; first compound 0.08 µM) | relative viability ([3]; first compound 0.253 µM) | relative viability ([3]; first compound 0.8 µM) | relative viability ([3]; first compound 2.53 µM) | relative viability ([3]; first compound 8 µM) | relative viability ([4]; first compound 0.08 µM) | relative viability ([4]; first compound 0.253 µM) | relative viability ([4]; first compound 0.8 µM) | relative viability ([4]; first compound 2.53 µM) | relative viability ([4]; first compound 8 µM) | relative viability ([1]; first compound 0.253 µM)
NCI-H1755 | 0.929 | 0.978 | 0.926 | 0.406 | 0.371 | 0.366 | 0.317 | 0.317 | 0.693 | 0.647 | 0.606 | 0.617 | 0.6 | 0.74 | 0.916 | 0.738 | 0.97 | 0.827 | 
PC-3 [JPC-3] | 0.832 | 0.791 | 0.829 | 0.893 | 0.934 | 1.02 | 0.93 | 0.925 | 0.452 | 0.454 | 0.44 | 0.488 | 0.516 | 0.986 | 1.12 | 0.915 | 1 | 0.891 | 0.791
HCC-44 | 0.904 | 0.904 | 0.663 |  |  |  |  |  | 0.166 | 0.164 | 0.138 | 0.21 | 0.208 | 0.845 | 0.833 | 0.754 | 0.901 | 0.625 | 0.887
CAL-12T | 0.814 | 0.816 | 0.937 | 0.365 | 0.34 | 0.383 | 0.31 | 0.373 | 0.566 | 0.668 | 0.593 | 0.575 | 0.547 |  | 0.789 | 0.441 | 0.739 | 0.485 | 0.833
ChaGo-K-1 | 1 | 0.959 | 0.9 | 0.548 | 0.536 | 0.615 | 0.494 | 0.575 | 0.448 | 0.523 | 0.519 | 0.483 | 0.407 | 1.06 | 1.43 | 1.31 | 1.17 | 0.817 | 1.18
NCI-H2126 | 0.95 | 1.1 | 1.02 | 0.512 | 0.61 | 0.615 | 0.578 | 0.585 | 0.504 | 0.575 | 0.471 | 0.527 | 0.621 | 0.921 | 1.11 | 1 | 1.09 | 0.912 | 1.07
HCC-827 | 1.01 | 0.995 | 1.03 | 0.28 | 0.296 | 0.387 | 0.273 | 0.15 | 0.396 | 0.377 | 0.424 | 0.387 | 0.394 | 1.02 | 0.959 | 0.965 | 1.03 | 0.926 | 0.981
LCLC-97TM1 |  | 0.212 | 0.163 | 0.902 | 0.73 | 0.779 | 0.742 | 0.791 | 0.43 | 0.443 | 0.463 | 0.498 | 0.46 | 0.428 | 0.65 | 0.495 | 0.271 | 0.191 | 0.59
HCC-15 | 0.897 | 0.983 | 0.925 | 0.595 | 0.575 | 0.657 | 0.564 | 0.608 | 0.407 | 0.516 | 0.496 | 0.494 | 0.387 | 0.696 | 0.885 | 0.855 | 0.886 | 0.692 | 0.987
NCI-H727 | 0.554 | 0.811 | 0.911 | 0.287 | 0.436 | 0.412 | 0.409 | 0.439 | 0.484 | 0.668 | 0.416 | 0.491 | 0.514 | 0.701 | 0.961 | 0.864 | 0.995 | 0.756 | 1.1
NCI-H2170 |  |  |  | 0.542 | 0.48 | 0.527 | 0.519 | 0.507 | 0.38 | 0.423 | 0.441 | 0.403 | 0.375 | 1.13 | 1.34 | 1.25 | 1.28 | 0.888 | 
201T | 0.989 | 1.09 | 1.12 | 0.596 | 0.584 | 0.54 | 0.508 | 0.541 | 0.335 | 0.451 | 0.46 | 0.462 | 0.434 | 0.992 | 1.08 | 1.06 | 1.01 | 1.11 | 1.11
NCI-H838 | 0.767 | 0.943 | 0.756 | 0.305 | 0.258 | 0.273 | 0.234 | 0.223 | 0.316 | 0.641 | 0.538 | 0.54 | 0.543 | 0.639 | 1.08 | 0.892 | 0.794 | 0.732 | 0.973
NCI-H1915 | 0.932 | 0.903 | 0.98 | 0.257 | 0.303 | 0.304 | 0.302 | 0.314 | 0.342 | 0.32 |  | 0.376 | 0.325 | 0.806 | 1.05 | 0.828 | 0.937 | 0.65 | 1.01
LCLC-103H | 0.79 | 1.09 | 0.927 | 0.359 | 0.438 | 0.446 | 0.344 | 0.307 | 0.265 | 0.342 | 0.374 | 0.354 | 0.305 | 1.09 | 1.17 | 0.967 | 1.18 | 1.02 | 0.88
SK-LU-1 | 0.895 | 0.916 | 0.46 | 0.203 | 0.181 | 0.165 | 0.129 | 0.128 | 0.378 | 0.44 | 0.538 | 0.639 | 0.566 | 0.895 | 0.995 | 0.837 | 0.85 | 0.661 | 1.04
NCI-H2347 |  | 0.979 | 0.713 | 0.242 | 0.318 | 0.313 | 0.244 | 0.269 | 0.265 | 0.429 | 0.496 | 0.342 | 0.419 | 0.717 | 0.807 | 0.558 | 0.658 | 0.687 | 1.1
ABC-1 | 0.311 | 0.25 | 0.264 | 0.531 | 0.569 | 0.682 | 0.472 | 0.577 | 0.241 | 0.274 | 0.241 | 0.259 | 0.239 | 0.743 | 1.55 | 1.05 | 0.928 | 1 | 0.302

Cell Line | relative viability ([1]; first compound 0.08 µM) | relative viability ([1]; first compound 0.8 µM) | relative viability ([1]; first compound 2.53 µM) | relative viability ([2]; first compound 0.08 µM) | relative viability ([2]; first compound 0.253 µM) | relative viability ([2]; first compound 0.8 µM) | relative viability ([2]; first compound 2.53 µM) | relative viability ([2]; first compound 8 µM) | relative viability ([3]; first compound 0.08 µM) | relative viability ([3]; first compound 0.253 µM) | relative viability ([3]; first compound 0.8 µM) | relative viability ([3]; first compound 2.53 µM) | relative viability ([3]; first compound 8 µM) | relative viability ([4]; first compound 0.08 µM) | relative viability ([4]; first compound 0.253 µM) | relative viability ([4]; first compound 0.8 µM) | relative viability ([4]; first compound 2.53 µM) | relative viability ([4]; first compound 8 µM) | relative viability ([1]; first compound 0.253 µM)
NCI-H1563 | 0.754 | 0.837 | 0.787 | 0.427 | 0.457 | 0.434 | 0.46 | 0.428 | 0.63 | 0.714 | 0.702 | 0.622 | 0.679 | 0.736 | 0.862 | 0.884 | 0.904 | 0.858 | 0.758
NCI-H2342 |  |  |  | 0.286 | 0.339 | 0.314 | 0.292 | 0.299 | 0.578 | 0.704 | 0.58 | 0.602 | 0.469 |  |  |  |  |  | 
IA-LM | 0.628 | 0.73 | 0.594 |  |  |  |  |  |  |  |  |  |  | 0.826 | 0.914 | 0.714 | 0.882 | 0.439 | 0.696
A549 |  |  |  |  |  |  |  |  | 0.124 | 0.184 | 0.123 | 0.192 | 0.238 | 0.493 | 0.998 | 0.688 | 0.885 | 0.55 | 
NCI-H1793 |  |  |  | 0.344 | 0.289 | 0.363 | 0.48 | 0.381 | 0.306 | 0.427 | 0.372 | 0.318 | 0.229 |  |  |  |  |  | 
NCI-H1299 | 0.998 | 1.04 | 0.937 |  |  |  |  |  |  |  |  |  |  | 0.878 | 1.02 | 0.987 | 0.968 | 0.947 | 0.955
SK-MES-1 |  |  |  | 0.315 | 0.275 | 0.305 | 0.223 | 0.162 | 0.643 | 0.682 | 0.659 | 0.708 | 0.615 | 1.05 | 1.05 | 0.905 | 1.05 | 0.951 | 
LK-2 |  |  |  | 0.242 | 0.293 | 0.312 | 0.298 | 0.265 |  | 0.466 | 0.376 | 0.661 | 0.245 |  |  | 0.236 | 0.21 | 0.296 | 
SW 900 |  |  |  | 0.461 | 0.444 | 0.383 | 0.39 | 0.254 | 0.484 | 0.895 | 0.534 | 0.638 | 0.405 |  |  |  |  |  | 
NCI-H1395 |  |  |  | 0.399 | 0.383 | 0.406 | 0.348 | 0.362 | 0.41 | 0.435 | 0.396 | 0.437 | 0.399 |  |  |  |  |  | 
NCI-H1703 |  | 0.261 | 0.172 |  |  |  |  |  |  |  |  |  |  | 0.452 | 0.811 | 0.827 | 0.844 | 0.56 | 0.299
NCI-H522 |  |  |  | 0.834 | 0.81 | 0.851 | 0.843 | 0.826 | 0.643 | 0.613 | 0.747 | 0.571 | 0.63 |  |  |  |  |  | 
NCI-H1623 |  |  |  | 0.538 | 0.564 | 0.599 | 0.541 | 0.536 | 0.623 | 0.623 | 0.569 | 0.568 | 0.534 |  |  |  |  |  | 
Calu-6 | 1.08 | 0.982 | 0.957 |  |  |  |  |  |  |  |  |  |  | 0.614 | 0.967 | 0.726 | 0.863 | 0.635 | 1.01
NCI-H1944 |  |  |  | 0.225 | 0.202 | 0.228 | 0.206 | 0.181 | 0.155 | 0.207 | 0.166 | 0.215 | 0.175 | 1.08 | 1.19 | 1.07 | 1.23 | 1.04 | 
EBC-1 | 0.49 | 0.386 | 0.263 |  |  |  |  |  |  |  |  |  |  | 0.202 | 0.21 | 0.19 | 0.199 | 0.191 | 0.458
NCI-H358 |  |  |  | 0.158 | 0.169 | 0.146 | 0.165 | 0.158 | 0.25 | 0.39 | 0.373 | 0.353 | 0.283 | 0.59 | 0.478 | 0.718 | 0.516 | 0.553 | 
